#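 Interpolation was linear, between the two tested concentrations surrounding the appropriate level; five concentrations were tested over 48 hours in 96-well plates. Abbreviation: GI50, concentration required for 50% inhibition of growth. TGI: total growth inhibition.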
# How the values were obtained:
# Assay in all cases: growth of human tumour cells (NCI), 48 h
# RXF 393 renal = system: RXF 393 renal
# NCI-H23 lung = system: NCI-H23 lung
# MDA-MB-231 breast = system: MDA-MB-231 breast
# SR leukemia = system: SR leukemia
# 786-0 renal = system: 786-0 renal
# SN12C renal = system: SN12C renal
# NCI-H226 lung = system: NCI-H226 lung
# SNB-75 CNS = system: SNB-75 CNS
# UACC-257 melanoma = system: UACC-257 melanoma
# PC-3 prostate = system: PC-3 prostate
# HOP-62 NSCLC = system: HOP-62 NSCLC
# A549 NSCLC = system: A549 NSCLC
# DU-145 prostate = system: DU-145 prostate
# OVCAR-3 ovarian = system: OVCAR-3 ovarian
# MCF7 breast = system: MCF7 breast
# ACHN renal = system: ACHN renal
# LOX IMVI melanoma = system: LOX IMVI melanoma
# MOLT-4 leukemia = system: MOLT-4 leukemia
# SK-MEL-28 melanoma = system: SK-MEL-28 melanoma
# T-47D breast = system: T-47D breast
# SF-295 CNS = system: SF-295 CNS
# HCT-15 colon = system: HCT-15 colon
# M14 melanoma = system: M14 melanoma
# UO-31 renal = system: UO-31 renal
# SF-539 CNS = system: SF-539 CNS
# MALME-3M melanoma = system: MALME-3M melanoma
# TK-10 renal = system: TK-10 renal
# NCI/ADR-RES ovarian = system: NCI/ADR-RES ovarian
# SK-MEL-2 melanoma = system: SK-MEL-2 melanoma
# IGROV1 ovarian = system: IGROV1 ovarian
# UACC-62 melanoma = system: UACC-62 melanoma
# SK-OV-3 ovarian = system: SK-OV-3 ovarian
# OVCAR-4 ovarian = system: OVCAR-4 ovarian
# SK-MEL-5 melanoma = system: SK-MEL-5 melanoma
# U251 CNS = system: U251 CNS
# HS 578T breast = system: HS 578T breast
# KM12 colon = system: KM12 colon
# OVCAR-5 ovarian = system: OVCAR-5 ovarian
# NCI-H460 lung = system: NCI-H460 lung
# CAKI-1 renal = system: CAKI-1 renal
# HCT-116 colon = system: HCT-116 colon
# RPMI-8226 leukemia = system: RPMI-8226 leukemia
# HL-60(TB) leukemia = system: HL-60(TB) leukemia
# COLO 205 colon = system: COLO 205 colon
# HT29 colon = system: HT29 colon
# MDA-MB-435 = system: MDA-MB-435
# CCRF-CEM leukemia = system: CCRF-CEM leukemia
# OVCAR-8 ovarian = system: OVCAR-8 ovarian
# NCI-H522 lung = system: NCI-H522 lung
# SNB-19 CNS = system: SNB-19 CNS
# SW-620 colon = system: SW-620 colon
# HCC-2998 colon = system: HCC-2998 colon
# HOP-92 NSCLC = system: HOP-92 NSCLC
# A498 renal = system: A498 renal
# BT-549 breast = system: BT-549 breast
# SF-268 CNS = system: SF-268 CNS
# EKVX NSCLC = system: EKVX NSCLC
structure (smiles),measurement,setting,value
Clc1ccc(-c2ccc(CNCC3CCNCC3)o2)c(-c2ccccc2)c1,GI50,RXF 393 renal,1360 nM
same,TGI,RXF 393 renal,2790 nM
same,GI50,NCI-H23 lung,1710 nM
same,TGI,NCI-H23 lung,3320 nM
same,GI50,MDA-MB-231 breast,1360 nM
same,TGI,MDA-MB-231 breast,2850 nM
same,GI50,SR leukemia,347 nM
same,TGI,SR leukemia,1270 nM
same,GI50,786-0 renal,1580 nM
same,TGI,786-0 renal,3010 nM
same,GI50,SN12C renal,1540 nM
same,TGI,SN12C renal,3030 nM
same,GI50,NCI-H226 lung,1660 nM
same,TGI,NCI-H226 lung,3680 nM
same,GI50,SNB-75 CNS,1390 nM
same,TGI,SNB-75 CNS,2810 nM
same,GI50,UACC-257 melanoma,2030 nM
same,TGI,UACC-257 melanoma,3570 nM
same,GI50,PC-3 prostate,1380 nM
same,TGI,PC-3 prostate,2760 nM
same,GI50,HOP-62 NSCLC,1650 nM
same,TGI,HOP-62 NSCLC,3270 nM
same,GI50,A549 NSCLC,1790 nM
same,TGI,A549 NSCLC,3560 nM
same,GI50,DU-145 prostate,1820 nM
same,TGI,DU-145 prostate,3330 nM
same,GI50,OVCAR-3 ovarian,1740 nM
same,TGI,OVCAR-3 ovarian,3460 nM
same,GI50,MCF7 breast,1560 nM
same,TGI,MCF7 breast,3300 nM
same,GI50,ACHN renal,1670 nM
same,TGI,ACHN renal,3060 nM
same,GI50,LOX IMVI melanoma,1540 nM
same,TGI,LOX IMVI melanoma,3030 nM
same,GI50,MOLT-4 leukemia,1540 nM
same,TGI,MOLT-4 leukemia,3420 nM
same,GI50,SK-MEL-28 melanoma,1790 nM
same,TGI,SK-MEL-28 melanoma,3270 nM
same,GI50,T-47D breast,1740 nM
same,TGI,T-47D breast,3820 nM
same,GI50,SF-295 CNS,1570 nM
same,TGI,SF-295 CNS,3000 nM
same,GI50,HCT-15 colon,1190 nM
same,TGI,HCT-15 colon,2600 nM
same,GI50,M14 melanoma,1630 nM
same,TGI,M14 melanoma,3110 nM
same,GI50,UO-31 renal,1370 nM
same,TGI,UO-31 renal,2760 nM
same,GI50,SF-539 CNS,1650 nM
same,TGI,SF-539 CNS,3120 nM
same,GI50,MALME-3M melanoma,1880 nM
same,TGI,MALME-3M melanoma,3540 nM
same,GI50,TK-10 renal,1620 nM
same,TGI,TK-10 renal,3130 nM
same,GI50,NCI/ADR-RES ovarian,1710 nM
same,TGI,NCI/ADR-RES ovarian,3300 nM
same,GI50,SK-MEL-2 melanoma,1760 nM
same,TGI,SK-MEL-2 melanoma,3310 nM
same,GI50,IGROV1 ovarian,1390 nM
same,TGI,IGROV1 ovarian,2930 nM
same,GI50,UACC-62 melanoma,1750 nM
same,TGI,UACC-62 melanoma,3270 nM
same,GI50,SK-OV-3 ovarian,1870 nM
same,TGI,SK-OV-3 ovarian,3330 nM
same,GI50,OVCAR-4 ovarian,1850 nM
same,TGI,OVCAR-4 ovarian,3540 nM
same,GI50,SK-MEL-5 melanoma,1660 nM
same,TGI,SK-MEL-5 melanoma,3050 nM
same,GI50,U251 CNS,1560 nM
same,TGI,U251 CNS,3010 nM
same,GI50,HS 578T breast,1630 nM
same,TGI,HS 578T breast,3420 nM
same,GI50,KM12 colon,1790 nM
same,TGI,KM12 colon,3620 nM
same,GI50,OVCAR-5 ovarian,1610 nM
same,TGI,OVCAR-5 ovarian,3040 nM
same,GI50,NCI-H460 lung,1710 nM
same,TGI,NCI-H460 lung,3330 nM
same,GI50,CAKI-1 renal,1510 nM
same,TGI,CAKI-1 renal,2900 nM
same,GI50,HCT-116 colon,1240 nM
same,TGI,HCT-116 colon,2540 nM
same,GI50,RPMI-8226 leukemia,1300 nM
same,TGI,RPMI-8226 leukemia,3190 nM
same,GI50,HL-60(TB) leukemia,1800 nM
same,TGI,HL-60(TB) leukemia,3690 nM
same,GI50,COLO 205 colon,1640 nM
same,TGI,COLO 205 colon,3360 nM
same,GI50,HT29 colon,1440 nM
same,TGI,HT29 colon,2890 nM
same,GI50,MDA-MB-435,1610 nM
same,TGI,MDA-MB-435,3050 nM
same,GI50,CCRF-CEM leukemia,557 nM
same,TGI,CCRF-CEM leukemia,2310 nM
same,GI50,OVCAR-8 ovarian,1870 nM
same,TGI,OVCAR-8 ovarian,3500 nM
same,GI50,NCI-H522 lung,1850 nM
same,TGI,NCI-H522 lung,3630 nM
same,GI50,SNB-19 CNS,1640 nM
same,TGI,SNB-19 CNS,3160 nM
same,GI50,SW-620 colon,1380 nM
same,TGI,SW-620 colon,2960 nM
same,GI50,HCC-2998 colon,1620 nM
same,TGI,HCC-2998 colon,3200 nM
same,GI50,HOP-92 NSCLC,1010 nM
same,TGI,HOP-92 NSCLC,2230 nM
same,GI50,A498 renal,1710 nM
same,TGI,A498 renal,3240 nM
same,GI50,BT-549 breast,1710 nM
same,TGI,BT-549 breast,3200 nM
same,GI50,SF-268 CNS,1620 nM
same,TGI,SF-268 CNS,3270 nM
same,GI50,EKVX NSCLC,1590 nM
same,TGI,EKVX NSCLC,2950 nM

# — PubChem BioAssay (NCI)
